Experimental data published in ChEMBL document CHEMBL1201861, “Genomics of Drug Sensitity in Cancer screening data, Wellcome Trust Sanger Institute”.

tested on: LXF-289 cell line; assay: cells; type: functional, cell-based, Homo sapiens; settings: Homo sapiens, LXF-289
Description: SANGER: Inhibition of human LXF-289 cell growth in a cell viability assay.

Row | SMILES | IC50
1 | CCN(CC)CCNC(=O)c1c(C)[nH]c(/C=C2\C(=O)Nc3ccc(F)cc32)c1C [SUNITINIB] | 2.73 µM

tested on: MHH-PREB-1; assay: cells; type: functional, cell-based, Homo sapiens; settings: Homo sapiens, MHH-PREB-1;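 also: cell viability assay measuring inhibition of proliferation of human MHH-PREB-1 cells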
Description: SANGER: Inhibition of human MHH-PREB-1 cell growth in a cell viability assay.

Row | SMILES | IC50
2 | CCN(CC)CCNC(=O)c1c(C)[nH]c(/C=C2\C(=O)Nc3ccc(F)cc32)c1C [SUNITINIB] | 5.32 µM

tested on: 697; assay: cells; type: functional, cell-based, Homo sapiens; settings: Homo sapiens
Description: SANGER: Inhibition of human 697 cell growth in a cell viability assay.

Row | SMILES | IC50
3 | CCN(CC)CCNC(=O)c1c(C)[nH]c(/C=C2\C(=O)Nc3ccc(F)cc32)c1C [SUNITINIB] | 0.614 µM

tested on: TE-8; assay: cells; type: functional, cell-based, Homo sapiens; settings: Homo sapiens, TE-8;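 also: growth inhibition of TE-8 cells, measured with a cell viability readout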
Description: SANGER: Inhibition of human TE-8 cell growth in a cell viability assay.

Row | SMILES | IC50
4 | CCN(CC)CCNC(=O)c1c(C)[nH]c(/C=C2\C(=O)Nc3ccc(F)cc32)c1C [SUNITINIB] | 2.37 µM

tested on: U-266; assay: cells; type: functional, cell-based, Homo sapiens; settings: Homo sapiens, U-266
Description: SANGER: Inhibition of human U-266 cell growth in a cell viability assay.

Row | SMILES | IC50
5 | CCN(CC)CCNC(=O)c1c(C)[nH]c(/C=C2\C(=O)Nc3ccc(F)cc32)c1C [SUNITINIB] | > 8 µM

tested on: NCI-H1648; assay: cells; type: functional, cell-based, Homo sapiens; settings: Homo sapiens, NCI-H1648;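 also: cell viability assay measuring inhibition of NCI-H1648 cell growth, from the Sanger screening data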
Description: SANGER: Inhibition of human NCI-H1648 cell growth in a cell viability assay.

Row | SMILES | IC50
6 | CCN(CC)CCNC(=O)c1c(C)[nH]c(/C=C2\C(=O)Nc3ccc(F)cc32)c1C [SUNITINIB] | > 8 µM

tested on: KMOE-2; assay: cells; type: functional, cell-based, Homo sapiens; settings: Homo sapiens, KMOE-2;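 also: growth inhibition of human KMOE-2 cells, read out with a cell viability assay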
Description: SANGER: Inhibition of human KMOE-2 cell growth in a cell viability assay.

Row | SMILES | IC50
7 | CCN(CC)CCNC(=O)c1c(C)[nH]c(/C=C2\C(=O)Nc3ccc(F)cc32)c1C [SUNITINIB] | > 8 µM

tested on: HDLM-2; assay: cells; type: functional, cell-based, Homo sapiens; settings: Homo sapiens, HDLM-2;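 also: cell viability assay measuring suppression of HDLM-2 proliferation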
Description: SANGER: Inhibition of human HDLM-2 cell growth in a cell viability assay.

Row | SMILES | IC50
8 | CCN(CC)CCNC(=O)c1c(C)[nH]c(/C=C2\C(=O)Nc3ccc(F)cc32)c1C [SUNITINIB] | 6.32 µM

tested on: TGBC1TKB; assay: cells; type: functional, cell-based, Homo sapiens; settings: Homo sapiens, TGBC1TKB;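 also: growth inhibition of TGBC1TKB cells, read out by a cell viability assay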
Description: SANGER: Inhibition of human TGBC1TKB cell growth in a cell viability assay.

Row | SMILES | IC50
9 | CCN(CC)CCNC(=O)c1c(C)[nH]c(/C=C2\C(=O)Nc3ccc(F)cc32)c1C [SUNITINIB] | > 8 µM

tested on: SK-UT-1; assay: cells; type: functional, cell-based, Homo sapiens; settings: Homo sapiens, SK-UT-1;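 also: growth inhibition of SK-UT-1 cells, measured by a cell viability assay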
Description: SANGER: Inhibition of human SK-UT-1 cell growth in a cell viability assay.

Row | SMILES | IC50
10 | CCN(CC)CCNC(=O)c1c(C)[nH]c(/C=C2\C(=O)Nc3ccc(F)cc32)c1C [SUNITINIB] | > 8 µM

tested on: ML-2; assay: cells; type: functional, cell-based, Homo sapiens; settings: Homo sapiens, ML-2;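 also: growth inhibition of ML-2 cells, measured with a cell viability readout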
Description: SANGER: Inhibition of human ML-2 cell growth in a cell viability assay.

Row | SMILES | IC50
11 | CCN(CC)CCNC(=O)c1c(C)[nH]c(/C=C2\C(=O)Nc3ccc(F)cc32)c1C [SUNITINIB] | 2.64 µM

tested on: KNS-81-FD; assay: cells; type: functional, cell-based, Homo sapiens; settings: Homo sapiens, KNS-81-FD;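 also: growth inhibition of KNS-81-FD cells, read out with a cell viability assay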
Description: SANGER: Inhibition of human KNS-81-FD cell growth in a cell viability assay.

Row | SMILES | IC50
12 | CCN(CC)CCNC(=O)c1c(C)[nH]c(/C=C2\C(=O)Nc3ccc(F)cc32)c1C [SUNITINIB] | > 8 µM

tested on: COLO-668; assay: cells; type: functional, cell-based, Homo sapiens; settings: Homo sapiens, COLO-668
Description: SANGER: Inhibition of human COLO-668 cell growth in a cell viability assay.

Row | SMILES | IC50
13 | CCN(CC)CCNC(=O)c1c(C)[nH]c(/C=C2\C(=O)Nc3ccc(F)cc32)c1C [SUNITINIB] | > 8 µM

tested on: SW872; assay: cells; type: functional, cell-based, Homo sapiens; settings: Homo sapiens, SW872;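 also: growth inhibition of SW872 cells, read out by a viability assay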
Description: SANGER: Inhibition of human SW872 cell growth in a cell viability assay.

Row | SMILES | IC50
14 | CCN(CC)CCNC(=O)c1c(C)[nH]c(/C=C2\C(=O)Nc3ccc(F)cc32)c1C [SUNITINIB] | > 8 µM

tested on: SNB-75; assay: cells; type: functional, cell-based, Homo sapiens; settings: Homo sapiens, SNB-75;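 also: cell viability assay measuring growth inhibition of human SNB-75 cells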
Description: SANGER: Inhibition of human SNB75 cell growth in a cell viability assay.

Row | SMILES | IC50
15 | CCN(CC)CCNC(=O)c1c(C)[nH]c(/C=C2\C(=O)Nc3ccc(F)cc32)c1C [SUNITINIB] | > 8 µM

tested on: LS-123; assay: cells; type: functional, cell-based, Homo sapiens; settings: Homo sapiens, LS-123
Description: SANGER: Inhibition of human LS-123 cell growth in a cell viability assay.

Row | SMILES | IC50
16 | CCN(CC)CCNC(=O)c1c(C)[nH]c(/C=C2\C(=O)Nc3ccc(F)cc32)c1C [SUNITINIB] | > 8 µM

tested on: COLO-684; assay: cells; type: functional, cell-based, Homo sapiens; settings: Homo sapiens, COLO-684
Description: SANGER: Inhibition of human COLO-684 cell growth in a cell viability assay.

Row | SMILES | IC50
17 | CCN(CC)CCNC(=O)c1c(C)[nH]c(/C=C2\C(=O)Nc3ccc(F)cc32)c1C [SUNITINIB] | > 8 µM

tested on: ES1; assay: cells; type: functional, cell-based, Homo sapiens; settings: Homo sapiens, ES1;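 also: growth inhibition of ES1 cells, read out with a cell viability assay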
Description: SANGER: Inhibition of human ES1 cell growth in a cell viability assay.

Row | SMILES | IC50
18 | CCN(CC)CCNC(=O)c1c(C)[nH]c(/C=C2\C(=O)Nc3ccc(F)cc32)c1C [SUNITINIB] | > 8 µM

tested on: ES7; assay: cells; type: functional, cell-based, Homo sapiens; settings: Homo sapiens, ES7;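 also: growth inhibition of cultured human ES7 cells, read out as cell viability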
Description: SANGER: Inhibition of human ES7 cell growth in a cell viability assay.

Row | SMILES | IC50
19 | CCN(CC)CCNC(=O)c1c(C)[nH]c(/C=C2\C(=O)Nc3ccc(F)cc32)c1C [SUNITINIB] | > 8 µM

tested on: COLO-829; assay: cells; type: functional, cell-based, Homo sapiens; settings: Homo sapiens, COLO-829
Description: SANGER: Inhibition of human COLO-829 cell growth in a cell viability assay.

Row | SMILES | IC50
20 | CCN(CC)CCNC(=O)c1c(C)[nH]c(/C=C2\C(=O)Nc3ccc(F)cc32)c1C [SUNITINIB] | > 8 µM

tested on: LAN-6; assay: cells; type: functional, cell-based, Homo sapiens; settings: Homo sapiens, LAN-6;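 also: growth inhibition of LAN-6 cells, determined with a cell viability assay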
Description: SANGER: Inhibition of human LAN-6 cell growth in a cell viability assay.

Row | SMILES | IC50
21 | CCN(CC)CCNC(=O)c1c(C)[nH]c(/C=C2\C(=O)Nc3ccc(F)cc32)c1C [SUNITINIB] | > 8 µM

tested on: SW982; assay: cells; type: functional, cell-based, Homo sapiens; settings: Homo sapiens, SW982;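 also: growth inhibition of SW982 cells, read out with a cell viability assay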
Description: SANGER: Inhibition of human SW982 cell growth in a cell viability assay.

Row | SMILES | IC50
22 | CCN(CC)CCNC(=O)c1c(C)[nH]c(/C=C2\C(=O)Nc3ccc(F)cc32)c1C [SUNITINIB] | 4.55 µM

tested on: GT3TKB; assay: cells; type: functional, cell-based, Homo sapiens; settings: Homo sapiens, GT3TKB;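 also: growth inhibition of the cell line, read out with a cell viability assay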
Description: SANGER: Inhibition of human GT3TKB cell growth in a cell viability assay.

Row | SMILES | IC50
23 | CCN(CC)CCNC(=O)c1c(C)[nH]c(/C=C2\C(=O)Nc3ccc(F)cc32)c1C [SUNITINIB] | 6.61 µM

tested on: CCRF-CEM; assay: cells; type: functional, cell-based, Homo sapiens; settings: Homo sapiens, CCRF-CEM;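 also: inhibition of CCRF-CEM cell growth, measured by a cell viability assay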
Description: SANGER: Inhibition of human CCRF-CEM cell growth in a cell viability assay.

Row | SMILES | IC50
24 | CCN(CC)CCNC(=O)c1c(C)[nH]c(/C=C2\C(=O)Nc3ccc(F)cc32)c1C [SUNITINIB] | > 8 µM
